Laboratory results published in patent US12421230B2, “Tricyclic heteroaryl compounds useful as IRAK4 inhibitors” (BRISTOL-MYERS SQUIBB COMPANY, priority 2020, dated 2025).

What was measured:
Human whole blood = test: IRAK4 Whole Blood Assay; assay type: cell-based; conditions: stimulated with TLR2 agonist lipoteichoic acid 10 μg/mL for 5 hours, IL-6 levels
Protocol: Human whole blood containing the anti-coagulant ACD-A was plated in 384-well plate (25 μL/well) and incubated with compounds for 60 minutes at 37° C. in a 5% CO2 incubator. The blood was stimulated with a TLR2 agonist, 10 μg/mL final concentration of lipoteichoic acid (Invivogen, San Diego, CA) in 25 μL RPMI (Gibco) for 5 hours in a 5% CO2 incubator. At the end of the incubation, plates were centrifuged at 2300 rpm for 5 minutes. Supernatants were harvested and analyzed for IL-6 levels by Flow Cytometry beads assay (BD Biosciences, San Jose, CA).

IRAK4 = target: T1, IRAK4 (Homo sapiens, UniProt Q9NWZ3); test: IRAK4 Inhibition Assay; assay type: biochemical; conditions: ATP 500 μM; fluoresceinated peptide 1.5 μM; IRAK4 0.6 nM; 60 min room temperature; Caliper LABCHIP
T1 sequence (Q9NWZ3 1-460): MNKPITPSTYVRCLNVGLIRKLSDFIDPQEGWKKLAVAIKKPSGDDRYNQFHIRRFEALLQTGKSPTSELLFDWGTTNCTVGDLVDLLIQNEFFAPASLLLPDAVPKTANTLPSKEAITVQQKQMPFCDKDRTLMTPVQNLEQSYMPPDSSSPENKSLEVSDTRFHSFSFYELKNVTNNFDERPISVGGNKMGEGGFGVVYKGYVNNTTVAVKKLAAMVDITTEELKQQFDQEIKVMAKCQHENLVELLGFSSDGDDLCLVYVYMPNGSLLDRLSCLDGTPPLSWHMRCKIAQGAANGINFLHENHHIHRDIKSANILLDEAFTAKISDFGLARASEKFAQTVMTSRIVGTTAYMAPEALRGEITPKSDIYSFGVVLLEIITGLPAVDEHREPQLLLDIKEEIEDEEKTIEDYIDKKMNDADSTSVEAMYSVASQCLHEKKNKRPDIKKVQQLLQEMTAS

SMILES | EC50 (Human whole blood) | IC50 (IRAK4)
CC(C)(O)[C@H]1C[C@H](NC(=O)c2cnc3c([nH]c4cc(C#N)ccc43)c2NC2CC2)C1 [Example 44, 7-cyano-4-(cyclopropylamino)-N-((1R,3R)-3-(2-hydroxypropan-2-yl)cyclobutyl)-5H-pyrido[3,2-b]indole-3-carboxamide] | 510 nM | 3.1 nM
COCCNC(=O)c1cnc2c([nH]c3cc(C#N)ccc32)c1NC(C)C [Example 17, 7-cyano-4-(isopropylamino)-N-(2-methoxyethyl)-5H-pyrido[3,2-b]indole-3-carboxamide] | 4730 nM | 13 nM
Cc1cc(CNC(=O)c2cnc3c([nH]c4cc(C#N)ccc43)c2NC(C)C)on1 [Example 15, 7-cyano-4-(isopropylamino)-N-((3-methylisoxazol-5-yl)methyl)-5H-pyrido[3,2-b]indole-3-carboxamide] | 1450 nM | 16 nM
CC(C)Nc1c(C(=O)NCCC(F)F)cnc2c1[nH]c1cc(C#N)ccc12 [Example 31, 7-cyano-N-(3,3-difluoropropyl)-4-(isopropylamino)-5H-pyrido[3,2-b]indole-3-carboxamide] | > 20000 nM | 9.5 nM
CC(C)(O)CCNC(=O)c1cnc2c([nH]c3cc(C#N)ccc32)c1N [Example 54, 4-amino-7-cyano-N-(3-hydroxy-3-methylbutyl)-5H-pyrido[3,2-b] indole-3-carboxamide] | > 10000 nM | 14 nM
CC(C)(O)[C@H](F)CNC(=O)c1cnc2c([nH]c3cc(C#N)ccc32)c1NC1COC1 [Example 22, (R)-7-cyano-N-(2-fluoro-3-hydroxy-3-methylbutyl)-4-(oxetanylamino)-5H-pyrido[3,2-b]indole-3-carboxamide] | 230 nM | 2.1 nM
CC(C)Nc1c(C(=O)NCc2nccs2)cnc2c1[nH]c1cc(C#N)ccc12 [Example 18, 7-cyano-4-(isopropylamino)-N-(thiazol-2-ylmethyl)-5H-pyrido[3,2-b]indole-3-carboxamide] | 8170 nM | 17 nM
CC(C)Nc1c(C(=O)NCCC(C)(C)O)cnc2c1[nH]c1cc(C#N)ccc12 [Example 5, 7-cyano-N-(3-hydroxy-3-methylbutyl)-4-(isopropylamino)-5H-pyrido[3,2-b]indole-3-carboxamide] | 1440 nM | 3.8 nM
CC(C)Nc1c(C(=O)N[C@H]2CC[C@H](N)CC2)cnc2c1[nH]c1cc(C#N)ccc12 [Example 12, N-((1R,4R)-4-aminocyclohexyl)-7-cyano-4-(isopropylamino)-5H-pyrido[3,2-b]indole-3-carboxamide] | 2720 nM | 8.6 nM
CC(C)(O)CCNC(=O)c1cnc2c([nH]c3cc(C#N)ccc32)c1NCC(F)F [Example 36, 7-cyano-4-((2,2-difluoroethyl)amino)-N-(3-hydroxy-3-methylbutyl)-5H-pyrido[3,2-b]indole-3-carboxamide] | 3320 nM | 9.1 nM
CC(C)(O)[C@H](F)CNC(=O)c1cnc2c([nH]c3cc(C#N)ccc32)c1NC1CC(F)(F)C1 [Example 3, (R)-7-cyano-4-((3,3-difluorocyclobutyl)amino)-N-(2-fluoro-3-hydroxy-3-methylbutyl)-5H-pyrido[3,2-b]indole-3-carboxamide] | 2470 nM | 19 nM
CCNc1c(C(=O)NC[C@@H](F)C(C)(C)O)cnc2c1[nH]c1cc(C#N)ccc12 [Example 2, (R)-7-cyano-4-(ethylamino)-N-(2-fluoro-3-hydroxy-3-methylbutyl)-5H-pyrido[3,2-b]indole-3-carboxamide] | 1300 nM | 1.6 nM
CC(C)Nc1c(-c2cn(C3CCNCC3)nn2)cnc2c1[nH]c1cc(C#N)ccc12 [Example 75, 4-(isopropylamino)-3-(1-(piperidin-4-yl)-1H-1,2,3-triazol-4-yl)-5H-pyrido[3,2-b]indole-7-carbonitrile] | 930 nM | 1.5 nM
